# Test results: article PMC5698418 (Nature Communications, 2017)
# Residue numbers refer to the chain shown, from its start. Names and notes keep the numbering of the source. Starred links: 1 amine or outer side, 2 acyl side, 3 side chain; linkers in the order of their positions; H or OH if unused. Positions of bridges follow the written chain, without caps; N, C: chain ends. Non-standard residues stand in square brackets, D forms with d. Residues, ends and D or L forms follow the SMILES beside them. Chains are numbered I, II in the order given. Actinocin(9to1) = Cc1c2oc3c(C)ccc(C(=O)[*:1])c3nc-2c(C(=O)[*:2])c(N)c1=O; NMeV = CN[C@H](C(=O)O)C(C)C; Sar = CNCC(=O)O
# B1: WT: wild-type mouse Arc-Myc-FLAG protein overexpressed in Neuro2a cells (protein, UniProt Q9WV31 1-396, looked up)
# Activity-regulated …: MELDHMTTGGLHAYPAPRGGPAAKPNVILQIGKCRAEMLEHVRRTHRHLLTEVSKQVERELKGLHRSVGKLENNLDGYVPTGDSQRWKKSIKACLCRCQETIANLERWVKREMHVWREVFYRLERWADRLESMGGKYPVGSEPARHTVSVGVGGPEPYCQEADGYDYTVSPYAITPPPAAGELPEQESVEAQQYQSWGPGEDGQPSPGVDTQIFEDPREFLSHLEEYLRQVGGSEEYWLSQIQNHMNGPAKKWWEFKQGSVKNWVEFKKEFLQYSEGTLSREAIQRELELPQKQGEPLDQFLWRKRDLYQTLYVDAEEEEIIQYVVGTLQPKLKRFLRHPLPKTLEQLIQRGMEVQDGLEQAAEPSGTPLPTEDETEALTPALTSESVASDRTQPE
# modifications: Myc-FLAG tag
# B2: K55Q: acetyl-mimic/unmodifiable mutant Arc-Myc-FLAG, lysine 55 to glutamine (protein, UniProt Q9WV31 1-396, looked up, variant K55Q)
# Activity-regulated …: B1 Activity-regulated … with K55Q
# modifications: Myc-FLAG tag
# notes: acetyl-mimic/unmodifiable mutant Arc-Myc-FLAG, lysine 55 to glutamine
# B3: K33Q: acetyl-mimic/unmodifiable mutant Arc-Myc-FLAG, lysine 33 to glutamine (protein, UniProt Q9WV31 1-396, looked up, variant K33Q)
# Activity-regulated …: B1 Activity-regulated … with K33Q
# modifications: Myc-FLAG tag
# notes: acetyl-mimic/unmodifiable mutant Arc-Myc-FLAG, lysine 33 to glutamine
# Tests used:
# primary cortical neurons = conditions: screen at 16.7 µM, excluded from data analysis
# Procedure: All 319 compounds were initially tested at a final concentration of 16.7 µM with three biological replicates.
# (§1) Screening of compounds in the chemogenomic library was carried out using DIV13 primary forebrain cortical neurons cultured on poly-L-lysine/laminin-coated 96-well plates (Ibidi USA, Madison, WI). Cells were seeded at a density of 30,000 cells per well and treated with the compound library and BDNF according to the experimental design presented in Fig. 3a. After experimental treatment, cells were processed for Arc and acetyl-H3K9 immunocytochemistry according to the protocol described above. Both antigens (Arc and acetyl-H3K9) were imaged using an IN Cell Analyzer 6000 imaging system and a ×40 objective. […] High-throughput quantification of nuclear Arc immunofluorescence signal was performed in a similar fashion than the low-throughput procedure described above but with the exception that acetyl-H3K9 was used as a nuclear mask to guide the automated quantification of nuclear Arc immunofluorescence signal.
# [1] = system: nuclear Arc in primary cortical neurons; assay: Low-throughput nuclear Arc immunofluorescence assay (coverslips, Map2-positive cells); type: cell-based, mouse; conditions: co-treated with BDNF 6 h; k252a 100 nM, ActD 2 ng ml−1, CHX 50 µg ml−1, U0126 10 µM
# Excerpt: Next, using fluorescent immunocytochemistry we assessed to what extent the observed induction of total Arc protein expression measured by western blotting corresponded to an accumulation of Arc in the nucleus of our cultured neurons. We chose to focus on nuclear Arc at this point based on the assumption that it would provide a robust and easily tractable phenotype for testing a large set of compounds with the help of a quantitative, single-cell level, high-content, image-based screen. […] On the other hand, many but not all of the neurons in cultures that were treated with BDNF for 6 h had high levels of Arc in their nuclei (Fig. 2b). […] Finally, to further evaluate the sensitivity of our method to quantify nuclear Arc expression, we tested four pharmacological inhibitors predicted to prevent BDNF-induced Arc expression. […] These experimental results with known mechanism of action compounds critically guided the design and interpretation of the chemogenomic screen performed next.
# Indirect immunofluorescence detection of antigens was carried out using cortical neurons cultured on poly-L-lysine/laminin-coated coverslips in 24-well plates at a density of 0.1 × 10^7 per well. After experimental treatment, cells were washed twice with PBS and fixed for 30 min at room temperature with 4% paraformaldehyde in PBS. After fixation, cells were washed twice with PBS, permeabilized with PBST (PBS + 0.25% Triton X-100) for 20 min, blocked in blocking solution (PBS + 5% normal goat serum) for another 30 min, and finally incubated overnight at 4 °C with the first primary antibody in blocking solution. The next day, coverslips were extensively washed with PBS and incubated for 2 h at room temperature in the appropriate fluorophore-conjugated secondary antibody solution (Alexa 488- or Alexa 594-conjugated secondary antibody (Molecular Probes, Invitrogen) in blocking solution). After washing with PBS, the coverslips were incubated again overnight in primary antibody solution for the second antigen, and the procedure for conjugation of the fluorophore-conjugated secondary antibody was repeated as above. Finally, cell nuclei were counterstained with 4′,6-diamidino-2-phenylindole (DAPI), and coverslips were mounted on glass slides with ProLong Antifade reagent (Invitrogen).
# Cells cultured on coverslips from three independent biological replicates were imaged with an IN Cell Analyzer 6000 high-performance laser-based confocal imaging system and a ×40 objective (GE Healthcare Life Sciences, Marlborough, MA). Image preparation, assembly, and analysis were performed with ImageJ (NIH) and Photoshop CS. Change in contrast and evenness of the illumination was applied equally to all images presented in the study. The following procedure was used for low-throughput measurements. First, original raw tiff files were opened in ImageJ, the nucleus of all neurons in the image was located based on Map2 immunostaining, then average pixel intensity corresponding to Arc immunofluorescence was measured for a 30-pixel spot positioned at the center of the nuclear compartment. Second, for each measure of Arc nuclear immunofluorescence pixel intensity, a measure of background pixel intensity from the same image channel was acquired and subsequently subtracted from the Arc nuclear immunofluorescence pixel intensity value. Finally, Arc immunofluorescence signal from untreated samples was used to establish an objective threshold (two standard deviations above the nuclear Arc immunofluorescence signal averaged from a representative population of untreated neurons) and allow comparison of nuclear Arc expression between different experimental conditions.
# [2] = system: BDNF-induced nuclear Arc expression in primary cortical neurons; assay: Chemogenomic screen: high-content image-based assay of BDNF-induced nuclear Arc expression (96-well); type: cell-based, mouse; conditions: for Percentage of cell with nuclear Arc immunostaining above 2σ threshold: BDNF-induced nuclear Arc expression, primary cortical neurons
# In short: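 Nuclear Arc immunofluorescence is quantified automatically within an acetyl-H3K9-defined nuclear mask from ×40 images. Cultures are DIV13 mouse forebrain cortical neurons seeded at 30,000 per well and exposed to BDNF plus compound at a final 16.7 µM, with triplicate biological replicates.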
# acetyl-H3K9 = assay: Acetyl-H3K9 immunofluorescence in neuronal nuclei (multiplexed in screen); type: cell-based, mouse; conditions: screen, 16.7 µM
# Procedure: To increase the throughput of our pharmacological screening for modulators of Arc, the above mentioned assay was adapted to cultures of mouse primary cortical neurons in 96-well plates.
# as §1
# Neuro2a cells = conditions: for Fold-change to WT: protein half-life in Neuro2a
# Excerpt: Next, we aimed to determine whether the K24, K33, K55, and K70 residues participate in Arc protein turnover. […] We also included K70 in this experiment because of its position in the coiled-coil and nuclear retention domains of Arc (Fig. 5e) as well as its relative proximity to K55. For this test, we used site-directed mutagenesis to generate plasmids that would allow overexpression of an acetyl-mimic/unmodifiable mutant Arc-Myc-FLAG protein (lysine (K) to glutamine (Q) mutant) for each of these four sites. After transfecting sets of Neuro2a cells with these different constructs, we inhibited translation with CHX and monitored overexpressed protein levels for up to 6 h after.
# Lysates were collected at the indicated time points and Arc-Myc-FLAG protein level analyzed in every sample by western blotting with an anti-FLAG antibody. Representative western blots are presented on top and quantification of data normalized to corresponding β-actin and presented as percentage of Arc-Myc-FLAG level (±SEM) at the initial time point after CHX application (t = 0). Curve represents exponential decay fit. b Estimate of protein half-life Arc for WT Arc-Myc-FLAG and each acetyl-mimic mutant is presented in table. c WT and acetyl-mutant Arc-Myc-FLAG polyubiquitination was determined in lysates from overexpressing Neuro2a cells. Lysates were immunoprecipitated with anti-FLAG and western blotted with anti-Ub or anti-Arc as indicated.
# Neuro2A cells were cultured in DMEM (supplemented with 10% fetal bovine serum (Gemini-Bio-Products, West Sacramento, CA), penicillin (50 units ml^−1), and streptomycin (50 µg ml^−1)) and transfected overnight using Lipofectamine 2000 (Invitrogen) according to the manufacturer’s protocol. The Neuro2A cell line was generously shared by Dr. Grace Gill.
# The pCMV6-Arc-Myc-DDK (FLAG) plasmid (MR206218) was purchased from OriGene Biotechnologies (Rockville, MD). The Arc-Myc-FLAG K24Q, K24R, K33Q, K55Q, K70Q, and K70R plasmids were generated with the help of the Q5 Site-Directed Mutagenesis Kit from New England BioLabs (Ipswich, MA) using WT pCMV6-Arc-Myc-FLAG as template. All constructs were verified by DNA sequencing.
# [3] = chemogenomic (SMART) screen, BDNF control 19.5
# [4] = nuclear Arc-positive cells relative to DMSO + BDNF control, negative values = decrease
molecule,measurement,setting,value
"CC(C)COc1ccc(CNC(=O)N(Cc2ccc(F)cc2)C2CCN(C)CC2)cc1 [Pimavanserin (ACP-103), Pimavanserin]",Reason for exclusion,primary cortical neurons,Cell death - toxicity
COc1cc2c(NC3CCN(C(C)C)CC3)nc(C3CCCCC3)nc2cc1OCCCN1CCCC1 [UNC 0638],Reason for exclusion,primary cortical neurons,Cell death - toxicity
CCCCN(CC)c1nc(C)nc2c1c(C)c(C)n2-c1c(C)cc(C)cc1C.Cl [Antalarmin hydrochloride],Reason for exclusion,primary cortical neurons,Cell death - toxicity
"Cc1c2oc3c(C)ccc(C(=O)N[C@@H]4C(=O)N[C@H](C(C)C)C(=O)N5CCC[C@H]5C(=O)N(C)CC(=O)N(C)[C@@H](C(C)C)C(=O)O[C@@H]4C)c3nc-2c(C(=O)N[C@@H]2C(=O)N[C@H](C(C)C)C(=O)N3CCC[C@H]3C(=O)N(C)CC(=O)N(C)[C@@H](C(C)C)C(=O)O[C@@H]2C)c(N)c1=O [actinomycin D] (I: T[dV]P[Sar][NMeV] / II: T[dV]P[Sar][NMeV]; ester I:1-I:C, II:1-II:C; linker I:N-II:N via Actinocin(9to1))",effect on BDNF-induced increase of nuclear Arc,[1],effectively prevented the increase of nuclear Arc
C[C@@H]1C[C@@H]([C@H](O)CC2CC(=O)NC(=O)C2)C(=O)[C@@H](C)C1 [cycloheximide],effect on BDNF-induced increase of nuclear Arc,[1],effectively prevented the increase of nuclear Arc
"Nc1ccccc1NC(=O)c1ccc(CNC(=O)OCc2cccnc2)cc1 [entinostat, reference compound]","occurrence of neuronal nuclei with above threshold nuclear Arc immunofluorescence signal, factor in relation to control (DMSO plus BDNF)","[2]; 16.7 µM, BDNF",≥ 1.5
same,impact on acetyl-H3K9 immunofluorescence (Z-score),acetyl-H3K9,strong impact
COC(=O)[C@@]1(O)C[C@H]2O[C@]1(C)n1c3ccccc3c3c4c(c5c6ccccc6n2c5c31)C(=O)NC4 [K252a],effect on BDNF-induced increase of nuclear Arc,[1],effectively prevented the increase of nuclear Arc
"Oc1cc(O)c2c(c1)O[C@H](c1cc(O)c(O)c(O)c1)[C@H](O)C2 [Epigallocatechin, Epigallocatechol, Epigallocatechin]",Reason for exclusion,primary cortical neurons,Cell death - toxicity
CNCC[C@H](Oc1cccc2ccccc12)c1cccs1 [Duloxetine],Reason for exclusion,primary cortical neurons,Cell death - toxicity
C[C@@H](NC(=O)C(=O)c1c[nH]c2ccc([N+](=O)[O-])cc12)c1ccccc1 [TCS 1205],Reason for exclusion,primary cortical neurons,Cell death - toxicity
CNC(=O)N1N=C(c2ccc(N)cc2)c2cc3c(cc2CC1C)OCO3 (stereo not drawn) [GYKI-53655],Percentage of cell with nuclear Arc immunostaining above 2σ threshold,[2]; [3],35.7%
same,Fold-change — Normalized to DMSO control (BDNF),[2]; [4],1.8 fold
O=C1[C@@H]2[C@H]3CC[C@H](C3)[C@@H]2C(=O)N1CCCCN1CCN(c2ncccn2)CC1 [Tandospirone],Percentage of cell with nuclear Arc immunostaining above 2σ threshold,[2]; [3],25.7%
same,Fold-change — Normalized to DMSO control (BDNF),[2]; [4],1.3 fold
CC[C@H](C)[C@H](NC(=O)[C@H](CO)NC(=O)[C@@H](NC(=O)[C@@H]1CCCN1C(=O)[C@H](C)NC(=O)[C@@H](N)CC(N)=O)C(C)C)C(=O)N1CCC[C@H]1C(=O)N[C@@H](CCC(N)=O)C(=O)O [AL-108],Percentage of cell with nuclear Arc immunostaining above 2σ threshold,[2]; chemogenomic screen,8.6%
same,Fold-change — Normalized to DMSO control (BDNF),"[2]; nuclear Arc-positive cells relative to DMSO control (BDNF), negative = decrease",-2.3 fold
CNCC[C@@H](Oc1ccccc1C)c1ccccc1 [Atomoxetine],Percentage of cell with nuclear Arc immunostaining above 2σ threshold,[2]; [3],17.6%
B1,Estimated t½,Neuro2a cells,2.77 h
same,Fold-change to WT,Neuro2a cells,1.00
B2,Estimated t½,Neuro2a cells,2.40 h
same,Fold-change to WT,Neuro2a cells,−1.15
B3,Estimated t½,Neuro2a cells,2.63 h
same,Fold-change to WT,Neuro2a cells,−1.05
